Earlier results in US20160279124A1, “Method for Treating Addiction” (priority 2015, published 2016).

Tested on: opioid use
Conditions: clinic and office based medical detox and Naltrexone treatment: pill, injectable and implant; for opioid use

## O=C1CC[C@@]2(O)[C@H]3Cc4ccc(O)c5c4[C@@]2(CCN3CC2CC2)[C@H]1O5 [Naltrexone]
  Success: 8% for
